Among the test systems are UO-31 renal; SK-MEL-2 melanoma; BT-549 breast; CAKI-1 renal; OVCAR-3 ovarian; NCI-H460 lung; SK-MEL-5 melanoma; SF-295 CNS; UACC-257 melanoma; NCI-H522 lung.
Common to all, as to assay: NCI tumour cell line growth inhibition, 48 h

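How tested: cells in 96-well plates exposed to compound for 48 hours at five concentrations. GI50 = concentration required for 50% inhibition of growth. TGI marks complete inhibition of growth.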

On to `O=C(Nc1ccccc1)c1cc(S(=O)(=O)Nc2nc3ccccc3o2)c(SCc2ccccc2)cc1Cl`, for which the GI50 in the assay on UO-31 renal is 17800 nM; in the assay on SK-MEL-2 melanoma it was 23600 nM; with BT-549 breast, 19 µM; in the assay on CAKI-1 renal, 19300 nM; with OVCAR-3 ovarian it was 19900 nM; with NCI-H460 lung, 20800 nM. The GI50 with SK-MEL-5 melanoma was 14100 nM; with SF-295 CNS it was 18500 nM; in the assay with UACC-257 melanoma it was 19600 nM; with NCI-H522 lung, 25200 nM. Further, the TGI with UO-31 renal was determined as 48500 nM; with SK-MEL-2 melanoma, 57.3 µM; in the assay with BT-549 breast it was 40.6 µM; in the assay on CAKI-1 renal, 35.5 µM; in the assay with OVCAR-3 ovarian it was 40 µM; in the assay with NCI-H460 lung, 77 µM. The TGI in the assay on SK-MEL-5 melanoma was 28 µM; in the assay on SF-295 CNS it was 33 µM; with UACC-257 melanoma, 38.6 µM; in the assay on NCI-H522 lung it was 65 µM.
Regarding `Oc1cc2ccccc2c(-c2c(O)c(O)cc3ccccc23)c1O`, the GI50 with UO-31 renal was 512 nM; in the assay with SK-MEL-2 melanoma it was 2740 nM; in the assay on BT-549 breast, 4.17 µM; in the assay on CAKI-1 renal, 852 nM; in the assay on OVCAR-3 ovarian it was 825 nM; in the assay with NCI-H460 lung it was 145 nM. Moreover, the GI50 is 1100 nM with SK-MEL-5 melanoma, 770 nM with SF-295 CNS, 3240 nM in the assay on UACC-257 melanoma and 2310 nM in the assay with NCI-H522 lung. Further, the TGI in the assay with UO-31 renal was found to be 6410 nM; with SK-MEL-2 melanoma, 15.5 µM; in the assay with BT-549 breast, 27.8 µM; in the assay on CAKI-1 renal it was 6.55 µM; with OVCAR-3 ovarian, 17.9 µM; in the assay on NCI-H460 lung, 2.78 µM. The TGI in the assay with SK-MEL-5 melanoma is 4.49 µM; in the assay on SF-295 CNS, > 29.6 µM; with UACC-257 melanoma, 24.3 µM; with NCI-H522 lung, 21 µM.
In the case of `Cn1cc(C2=C(c3cn(C)c4ccccc34)C(=O)NC2=O)c2ccccc21`, the GI50 in the assay with UO-31 renal is 2490 nM; with SK-MEL-2 melanoma, 894 nM; with BT-549 breast, 2.33 µM; in the assay with CAKI-1 renal it was 1200 nM; with OVCAR-3 ovarian, 646 nM; in the assay on NCI-H460 lung it was 1120 nM. The GI50 with SK-MEL-5 melanoma was 873 nM; in the assay with SF-295 CNS it was 903 nM; with UACC-257 melanoma it was 4170 nM; in the assay on NCI-H522 lung it was 433 nM. The TGI is > 25000 nM with UO-31 renal; > 14 µM in the assay with SK-MEL-2 melanoma; > 25 µM with BT-549 breast; > 25 µM in the assay on CAKI-1 renal; > 6.67 µM in the assay with OVCAR-3 ovarian; > 25 µM in the assay with NCI-H460 lung. The TGI is > 25 µM in the assay with SK-MEL-5 melanoma, > 25 µM in the assay on SF-295 CNS, > 25 µM with UACC-257 melanoma and 2.52 µM in the assay on NCI-H522 lung.
In the case of `O=C(c1ccco1)c1c(C(F)(F)F)n([O-])c2ccc(Cl)cc2[n+]1=O`, the GI50 is 1570 nM in the assay with UO-31 renal; 1760 nM in the assay on SK-MEL-2 melanoma; 0.109 µM in the assay with BT-549 breast; 961 nM with CAKI-1 renal; 1110 nM in the assay with OVCAR-3 ovarian; 547 nM in the assay on NCI-H460 lung. In addition, the GI50 in the assay on SK-MEL-5 melanoma is 538 nM; in the assay with SF-295 CNS it was 1790 nM; in the assay with UACC-257 melanoma it was 1310 nM; in the assay on NCI-H522 lung it was 1400 nM. Besides, the TGI in the assay on UO-31 renal was 2980 nM; with SK-MEL-2 melanoma, 9.78 µM; with BT-549 breast it was 0.73 µM; in the assay with CAKI-1 renal it was 4.21 µM; with OVCAR-3 ovarian it was 3.92 µM; in the assay on SK-MEL-5 melanoma, 1.64 µM. Also, the TGI in the assay with SF-295 CNS worked out at 7.05 µM; in the assay with UACC-257 melanoma, 3.08 µM.
For `O=c1oc2ccc(Br)cc2c(=O)n1-c1ccc(I)cc1F`, the GI50 in the assay with UO-31 renal was 240 nM; in the assay on SK-MEL-2 melanoma, 252 nM; in the assay with BT-549 breast it was 0.341 µM; in the assay with CAKI-1 renal, 229 nM; in the assay with OVCAR-3 ovarian it was 336 nM; in the assay with NCI-H460 lung it was 367 nM. The GI50 in the assay with SK-MEL-5 melanoma was 246 nM; in the assay with SF-295 CNS, 1500 nM; in the assay on UACC-257 melanoma, 328 nM; in the assay with NCI-H522 lung, 277 nM. The TGI in the assay with UO-31 renal is 1220 nM; in the assay with SK-MEL-2 melanoma it was 0.791 µM; in the assay on BT-549 breast it was 1.39 µM; with CAKI-1 renal, 1.16 µM; with OVCAR-3 ovarian it was 8.52 µM; with NCI-H460 lung, 5.57 µM. The TGI was 0.642 µM in the assay with SK-MEL-5 melanoma, 3.12 µM with SF-295 CNS, 1.91 µM in the assay with UACC-257 melanoma and 1.65 µM with NCI-H522 lung.
Turning to `CC(=O)OC1CC2C3CCC4C[C@@H](NC(=O)C=C(C)C)CC[C@]4(C)C3CC[C@]2(C)[C@H]1C(C)N(C)C` (stereo partly drawn), the GI50 in the assay with UO-31 renal is 949 nM; in the assay on SK-MEL-2 melanoma, 2310 nM; in the assay on BT-549 breast, 4.21 µM; in the assay on CAKI-1 renal, 3710 nM; with OVCAR-3 ovarian, 1990 nM; in the assay on NCI-H460 lung it was 885 nM. Further, the GI50 with SK-MEL-5 melanoma is 1370 nM; with SF-295 CNS, 2110 nM; with UACC-257 melanoma it was 2180 nM; with NCI-H522 lung it was 2780 nM. In addition, the TGI in the assay on UO-31 renal worked out at 2950 nM; with SK-MEL-2 melanoma, 4.58 µM; in the assay with BT-549 breast, 11.1 µM; with CAKI-1 renal, 13.2 µM; in the assay with OVCAR-3 ovarian it was 7.56 µM; in the assay with NCI-H460 lung it was 2.65 µM. Further, the TGI in the assay on SK-MEL-5 melanoma worked out at 2.71 µM; with SF-295 CNS, 4.75 µM; in the assay with UACC-257 melanoma it was 4.5 µM; in the assay on NCI-H522 lung, 11.4 µM.
For the compound `CCCCCCCCn1ccc2cc(NC(=O)Cn3cc(CN4CCCCC4)nn3)ccc21`, the GI50 with UO-31 renal is 1340 nM; in the assay with SK-MEL-2 melanoma it was 1900 nM; in the assay with BT-549 breast it was 10.2 µM; in the assay with CAKI-1 renal, 1520 nM; in the assay with OVCAR-3 ovarian, 3420 nM; in the assay on NCI-H460 lung it was 1890 nM. In addition, the GI50 was 1770 nM with SK-MEL-5 melanoma, 1810 nM in the assay with SF-295 CNS, 2010 nM in the assay with UACC-257 melanoma and 1800 nM in the assay with NCI-H522 lung. Moreover, the TGI was 2620 nM in the assay on UO-31 renal; 3.68 µM with SK-MEL-2 melanoma; 23.2 µM with BT-549 breast; 2.99 µM in the assay on CAKI-1 renal; 13.3 µM with OVCAR-3 ovarian; 3.67 µM in the assay on NCI-H460 lung. For the same compound, the TGI in the assay with SK-MEL-5 melanoma came out at 3.16 µM; in the assay on SF-295 CNS, 3.65 µM; in the assay on UACC-257 melanoma it was 4.45 µM; in the assay on NCI-H522 lung, 4 µM.

Values taken from PubChem BioAssay (NCI).
